These results are taken from patent US12091425B2 (AMGEN INC., priority 2016, dated 2024).

Experiment [1] concerns OPM-2 human multiple myeloma cell line. In words: Cell Viability Assay (OPM-2 10 FBS). Format: cell-based. To be noted: OPM-2 cells, CellTiter-Glo. The method in brief: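 ATP-based luminescence (CellTiter-Glo) measured after a 16 h compound treatment of OPM-2 cells seeded at 3000 cells/well in 10% FBS medium. IC50 values derived by 4-parameter logistic fitting of serial dilutions.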

For experiment [2], the target named is T1, Mcl-1/Bim interaction, recombinant human Mcl-1 (171-327) (Homo sapiens, UniProt Q07820).
T1 construct: made in house
T1 sequence (Q07820 171-327): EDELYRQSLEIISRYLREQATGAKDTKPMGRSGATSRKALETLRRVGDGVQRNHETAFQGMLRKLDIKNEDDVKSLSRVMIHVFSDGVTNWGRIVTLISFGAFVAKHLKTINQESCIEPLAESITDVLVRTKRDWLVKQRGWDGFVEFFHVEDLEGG
In words: Cell free Mcl-1: Bim Affinity Assay (Mcl-1 HTRF). The experiment is classed as binding. The method in brief: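 Displacement of biotinylated Bim 51-76 peptide is followed by TR-FRET. Incubation runs overnight. Duplicate points are fitted with a four-parameter sigmoid to yield IC50.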

The mark [3] stands for this setting: Homo sapiens, OPM-2, 16 h, 16 h.
[4] abbreviates: TR-FRET, 0.1 nM Mcl-1 (171-327), 0.05 nM biotin-Bim (51-76).
Where [5] appears, read: cell free Mcl-1:Bim TR-FRET, recombinant human Mcl-1 (171-327).

In general, IC50 refers to the concentration that gives 50% inhibition. For the molecule `COCC[C@H]1/C=C/[C@H](OC)[C@@H]2CC[C@H]2CN2C[C@@]3(CCCc4cc(Cl)ccc43)COc3ccc(cc32)C(=O)NS(=O)(=O)[C@H](C)C1` [Example 204, (1S,3′R,6′R,7′S,8′E,10′R,12′R)-6-chloro-7′-methoxy-10′-(2-methoxyethyl)-12′-methyl-3,4-dihydro-2H,15′H-spiro[naphthalene-1,22′-[20]oxa[13]thia[1,14]diazatetracyclo[14.7.2.0^3,6.0^19,24]pentacosa [8,16,18,24]tetraen]-15′-one 13′,13′-dioxide], the IC50 in experiment [1] (setting [3]) is 0.686 µM; in experiment [2] (setting [4]), 0.000732 µM.
In the case of `C[C@@H]1[C@@H](C)S(=O)(=O)NC(=O)c2ccc3c(c2)N(C[C@@H]2CC[C@H]2[C@@H](O)CC[C@@H]1C)C[C@@]1(CCCc2cc(Cl)ccc21)CO3` [Example 1045, (1S,3′R,6′R,7′S,10′S,11′S,12′R)-6-chloro-7′-hydroxy-10′,11′,12′-trimethyl-3,4-dihydro-2H,15′H-spiro[naphthalene-1,22′-[20]oxa[13]thia[1,14]diazatetracyclo[14.7.2.0^3,6.0^19,24]pentacosa [16,18,24]trien]-15′-one 13′,13′-dioxide], the IC50 stood at 1.14 µM in experiment [1] (Homo sapiens, OPM-2, 16 h, 16 h incubation) and 0.000294 µM in experiment [2] (setting [4]).
Regarding `CC1CCCS(=O)(=O)NC(=O)c2ccc3c(c2)N(CC2CCC2C(O)C1)CC1(CCCc2cc(Cl)ccc21)CO3` (single isomer, unassigned) [Example 240], the results for the IC50 in experiment [1] (setting [3]) and in experiment [2] (setting [4]) were 3.73 µM and 0.00254 µM, respectively.
Consider `CC(=O)N1C[C@H]2C/C=C/[C@H](O)[C@@H]3CC[C@H]3CN3C[C@@]4(CCCc5cc(Cl)ccc54)COc4ccc(cc43)C(=O)NS(=O)(=O)[C@@H]2C1` (single isomer, unassigned) [Example 338], for which the values for the IC50 in experiment [1] (16 h) and in experiment [2] (setting [4]) were 5.62 µM and 0.000241 µM, respectively.
Regarding `N#CCC[C@H]1CC/C=C/[C@H](O)[C@@H]2CC[C@H]2CN2C[C@@]3(CCCc4cc(Cl)ccc43)COc3ccc(cc32)C(=O)NS1(=O)=O` (single isomer, unassigned) [Example 614], the IC50 amounted to 8.07 µM in experiment [1] (16 h) and 0.00113 µM in experiment [2] (setting [5]).
As for `CC[C@@H]1C/C=C/[C@H](OCC(=O)O)[C@@H]2CC[C@H]2CN2C[C@@]3(CCCc4cc(Cl)ccc43)COc3ccc(cc32)C(=O)NS1(=O)=O` [Example 764, (((1S,3′R,6′R,7′S,8′E,11′R)-6-chloro-11′-ethyl-12′,12′-dioxido-14′-oxo-3,4-dihydro-2H-spiro[naphthalene-1,21′-[19]oxa[12]thia[1,13]diazatetracyclo[13.7.2.0^3,6.0^18,23]tetracosa[8,15,17,23]tetraen]-7′-yl)oxy)acetic Acid], the IC50 in experiment [1] (setting [3]) worked out at 11.2 µM; in experiment [2] (setting [5]), 0.000113 µM.
Regarding `C[C@@H]1CC/C=C/[C@H](OCc2cnnn2C)[C@@H]2CC[C@H]2CN2C[C@@]3(CCCc4cc(Cl)ccc43)COc3ccc(cc32)C(=O)NS1(=O)=O` [Example 416, (1S,3′R,6′R,7′S,8′E,12′R)-6-chloro-12′-methyl-7′-((1-methyl-1H-1,2,3-triazol-5-yl)methoxy)-3,4-dihydro-2H,15′H-spiro[naphthalene-1,22′-[20]oxa[13]thia[1,14]diazatetracyclo[14.7.2.0^3,6.0^19,24]pentacosa [8,16,18,24]tetraen]-15′-one 13′,13′-dioxide], the 50% inhibitory concentration (IC50) in experiment [1] (setting [3]) is 1.06 µM; in experiment [2] (setting [4]) it was 0.000377 µM.
As for `C[C@H]1C/C=C/[C@H](OCCN2CCOCC2)[C@@H]2CC[C@H]2CN2C[C@@]3(CCCc4cc(Cl)ccc43)COc3ccc(cc32)C(=O)NS(=O)(=O)[C@@H]1CC1CC1` (single isomer, unassigned) [Example 386], the values for the IC50 in experiment [1] (16 h) and in experiment [2] (setting [4]) were 0.273 µM and 0.00063 µM, respectively.
